Source: the supplement of paper PMC4862054

Legend:
Assay in all cases: normalised response (% of control), CellTiter-Glo; higher = more viable cells (100 = DMSO, 0 = benzethonium chloride kill control)
Conditions in all cases: incubation time: 72 h
[1] = system: MDA-MB-453
Outline: (§1)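 The table gives the normalised signal for a single concentration in each entry. Breast cancer cell lines were seeded (20 µl suspension) into 384-well plates holding compound at 5 concentrations in 10-fold steps over a compound-specific 10,000-fold range and incubated 72 h, then read for CellTox Green fluorescence (485/520 nm) and CellTiter-Glo luminescence. Normalisation on each plate used 0.1 % DMSO (100) and a positive kill control (0).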

[2] = system: MDA-MB-436
Outline: as §1

[3] = system: DU-4475
Outline: as §1

[4] = system: BT-474
Outline: as §1

[5] = system: MDA-MB-231
Outline: as §1

[6] = system: CAL-85-1
Outline: as §1

[7] = system: MFM-223
Outline: as §1

[8] = system: CAL-51
Outline: as §1

[9] = system: CAL-120
Outline: as §1

[10] = system: HCC1599
Outline: as §1

[11] = system: HCC1937
Outline: as §1

[12] = system: SK-BR-3
Outline: as §1

[13] = system: HCC1143
Outline: as §1

[14] = system: Hs578T
Outline: as §1

[15] = system: HDQ-P1
Outline: as §1

[16] = system: BT-549
Outline: as §1

[17] = system: MDA-MB-468
Outline: as §1

## CN1CC[C@H](c2c(O)cc(O)c3c(=O)cc(-c4ccccc4Cl)oc23)[C@H](O)C1 [Alvocidib] (1000 nM)
[1]
  normalised response: 28%
[2]
  normalised response: 14.2%
[3]
  normalised response: 10.1%
[4]
  normalised response: 20%
[5]
  normalised response: 3.01%
[6]
  normalised response: 8.63%
[7]
  normalised response: 14%
[8]
  normalised response: 9.5%
[9]
  normalised response: 35.2%
[10]
  normalised response: 17.2%
[11]
  normalised response: 29.1%
[12]
  normalised response: 2.44%
[13]
  normalised response: 17.1%
[14]
  normalised response: 10.1%
[15]
  normalised response: 19.8%
[16]
  normalised response: 5.76%
[17]
  normalised response: 8.32%

## Nc1nc(Cl)nc2c1ncn2[C@H]1C[C@H](O)[C@@H](CO)O1 [Cladribine] (100 nM)
[1]
  normalised response: 106%
[2]
  normalised response: 104%
[3]
  normalised response: 101%
[4]
  normalised response: 97.1%
[5]
  normalised response: 93.3%
[6]
  normalised response: 104%
[7]
  normalised response: 101%
[8]
  normalised response: 90.1%
[9]
  normalised response: 94.5%
[10]
  normalised response: 112%
[11]
  normalised response: 90.3%
[12]
  normalised response: 111%
[13]
  normalised response: 100%
[14]
  normalised response: 100%
[15]
  normalised response: 97.5%
[16]
  normalised response: 77.7%
[17]
  normalised response: 93.8%

## Nc1ccn([C@@H]2O[C@H](CO)[C@@H](O)[C@@H]2O)c(=O)n1 [Cytarabine] (1000 nM)
[1]
  normalised response: 105%
[2]
  normalised response: 46.4%
[3]
  normalised response: 77.8%
[4]
  normalised response: 90.6%
[5]
  normalised response: 86.8%
[6]
  normalised response: 94.5%
[7]
  normalised response: 101%
[8]
  normalised response: 39.7%
[9]
  normalised response: 88%
[10]
  normalised response: 93.4%
[11]
  normalised response: 85.2%
[12]
  normalised response: 46.7%
[13]
  normalised response: 80.6%
[14]
  normalised response: 81.6%
[15]
  normalised response: 92%
[16]
  normalised response: 61.9%
[17]
  normalised response: 74.3%

## Cc1c2oc3c(C)ccc(C(=O)N[C@@H]4C(=O)N[C@H](C(C)C)C(=O)N5CCC[C@H]5C(=O)N(C)CC(=O)N(C)[C@@H](C(C)C)C(=O)O[C@@H]4C)c3nc-2c(C(=O)N[C@@H]2C(=O)N[C@H](C(C)C)C(=O)N3CCC[C@H]3C(=O)N(C)CC(=O)N(C)[C@@H](C(C)C)C(=O)O[C@@H]2C)c(N)c1=O [Dactinomycin] (100 nM)
[1]
  normalised response: 6.8%
[2]
  normalised response: 17%
[3]
  normalised response: 0.24%
[4]
  normalised response: 6.79%
[5]
  normalised response: 2.57%
[6]
  normalised response: 6.91%
[7]
  normalised response: 26.6%
[8]
  normalised response: 2.69%
[9]
  normalised response: 19.8%
[10]
  normalised response: 8.92%
[11]
  normalised response: 18.9%
[12]
  normalised response: 11.3%
[13]
  normalised response: 8.6%
[14]
  normalised response: 7.79%
[15]
  normalised response: 21.8%
[16]
  normalised response: 6.05%
[17]
  normalised response: 3.22%

## COc1cccc2c1C(=O)c1c(O)c3c(c(O)c1C2=O)C[C@@](O)(C(=O)CO)C[C@@H]3O[C@H]1C[C@H](N)[C@H](O)[C@H](C)O1 [Doxorubicin] (100 nM)
[1]
  normalised response: 117%
[2]
  normalised response: 85.4%
[3]
  normalised response: 80.7%
[4]
  normalised response: 82.9%
[5]
  normalised response: 95.9%
[6]
  normalised response: 103%
[7]
  normalised response: 115%
[8]
  normalised response: 39%
[9]
  normalised response: 98.6%
[10]
  normalised response: 115%
[11]
  normalised response: 107%
[12]
  normalised response: 92.2%
[13]
  normalised response: 105%
[14]
  normalised response: 98.7%
[15]
  normalised response: 98.7%
[16]
  normalised response: 78.3%
[17]
  normalised response: 71.4%

## Cc1ccc(F)c(NC(=O)Nc2ccc(-c3cccc4[nH]nc(N)c34)cc2)c1 [Linifanib] (100 nM)
[1]
  normalised response: 112%
[2]
  normalised response: 112%
[3]
  normalised response: 98.7%
[4]
  normalised response: 106%
[5]
  normalised response: 111%
[6]
  normalised response: 100%
[7]
  normalised response: 110%
[8]
  normalised response: 75.2%
[9]
  normalised response: 114%
[10]
  normalised response: 104%
[11]
  normalised response: 102%
[12]
  normalised response: 112%
[13]
  normalised response: 105%
[14]
  normalised response: 98%
[15]
  normalised response: 103%
[16]
  normalised response: 103%
[17]
  normalised response: 104%

## S=c1[nH]cnc2nc[nH]c12 [Mercaptopurine] (1000 nM)
[1]
  normalised response: 98.6%
[2]
  normalised response: 88.7%
[3]
  normalised response: 79.7%
[4]
  normalised response: 75.6%
[5]
  normalised response: 66.6%
[6]
  normalised response: 92.6%
[7]
  normalised response: 93.7%
[8]
  normalised response: 108%
[9]
  normalised response: 88.8%
[10]
  normalised response: 80.5%
[11]
  normalised response: 59.4%
[12]
  normalised response: 95.2%
[13]
  normalised response: 95.3%
[14]
  normalised response: 71.8%
[15]
  normalised response: 47.7%
[16]
  normalised response: 103%
[17]
  normalised response: 91.8%

## Clc1ccc(C(c2ccccc2Cl)C(Cl)Cl)cc1 (stereo unspecified) [Mitotane] (1000 nM)
[1]
  normalised response: 92.5%
[2]
  normalised response: 98.2%
[3]
  normalised response: 95.3%
[4]
  normalised response: 92%
[5]
  normalised response: 101%
[6]
  normalised response: 101%
[7]
  normalised response: 97.4%
[8]
  normalised response: 98.3%
[9]
  normalised response: 97.7%
[10]
  normalised response: 121%
[11]
  normalised response: 99.6%
[12]
  normalised response: 94.2%
[13]
  normalised response: 94.1%
[14]
  normalised response: 104%
[15]
  normalised response: 101%
[16]
  normalised response: 100%
[17]
  normalised response: 98.7%
